Test results published in patent publication US5462926A (Biomeasure, Inc., priority 1993, dated 1995).
Read-outs that look alike come from different tables or passages of the source. Where a SMILES comes first, the peptide text is derived from it. Bridges are numbered along the chain shown (N, C = ends). [ ]: non-standard residue; d: D form. 2Nal = N[C@@H](Cc1ccc2ccccc2c1)C(=O)O; d2Nal = N[C@H](Cc1ccc2ccccc2c1)C(=O)O

Tests used:
somatostatin receptors = molecular target: T1, somatostatin receptors (Rattus norvegicus, UniProt P30680); assay: Somatostatin membrane receptor assay, 125I-[Tyr11]SS-14, AR 42J cell membranes; format: binding; details: Cheng method; table prints no unit (b360 gives nM for a Table 4 value); read-out: affinity, 125I-[Tyr11]SS-14, AR 42J Cell Membranes (somatostatin receptors)
T1 construct: endogenous in cells; host or cells: rat AR 42J pancreatic acinar tumor cell membranes

mu opioid receptors = molecular target: T2, mu opioid receptors (Rattus norvegicus, UniProt P33535); assay: Mu opioid membrane assay, [3H]DAGO, rat forebrain membranes; format: binding; details: Cheng method; unit inferred; read-out: affinity, [3H]DAGO, Rat Forebrain membranes (mu opioid receptors)
T2 construct: rat forebrain (TRH, mu and delta opioid membrane assays); from tissue; host or cells: rat forebrain membranes

NMB receptor [1] = molecular target: T3, NMB receptor (Rattus norvegicus, UniProt P24053); assay: [3H]inositol phosphates in NMB-R transfected cells (alone or NMB-stimulated); format: cell-based; parameters: a full length NMB-preferring bombesin receptor clone generated from rat esophagus; expressed in transfected cells; details: NMB-R transfected cells; for [3H]IP, analog Alone (10 μM): analog 10 μM alone, control 13 ± 3; for [3H]IP, analog Plus NMB (3 nM): analog 10 μM plus NMB 3 nM, NMB without analog 186 ± 58
T3 sequence (P24053 1-390): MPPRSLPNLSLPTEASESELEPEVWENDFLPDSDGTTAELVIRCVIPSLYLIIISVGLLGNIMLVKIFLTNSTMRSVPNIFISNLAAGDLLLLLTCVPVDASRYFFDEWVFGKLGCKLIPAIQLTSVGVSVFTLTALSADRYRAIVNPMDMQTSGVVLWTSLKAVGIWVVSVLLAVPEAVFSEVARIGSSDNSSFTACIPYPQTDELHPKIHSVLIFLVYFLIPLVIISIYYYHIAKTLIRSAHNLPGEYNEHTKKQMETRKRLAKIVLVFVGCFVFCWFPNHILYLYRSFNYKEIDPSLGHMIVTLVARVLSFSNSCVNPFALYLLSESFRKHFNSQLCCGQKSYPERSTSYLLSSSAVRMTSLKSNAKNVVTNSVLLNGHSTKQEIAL
Method: As described previously [Wada, E., et al. Neuron 6:421 (1991)], BALB 3T3 cells expressing a stably transfected rat NMB receptor (NMB-R transfected cells) were obtained using calcium phosphate precipitation of a full length NMB-preferring bombesin receptor clone generated from rat esophagus and subcloned into a modified version of the pCD2 plasmid. Cells were passaged every 3-4 days at confluence, using 0.1% trypsin in 1 mM EDTA. Rat glioblastoma C-6 tumor cells were maintained similarly and were passaged weekly at confluence. Both cell lines were cultured at 37° C. in a 5% CO2 atmosphere. Rat AR 42J pancreatic acinar cells were cultured in Dulbecco's modified Eagle's medium (DMEM) without antibiotics and supplemented with 10% (vol/vol) fetal calf serum. The incubation atmosphere consisted of 10% CO2 -90% humidified air at 37° C.
Measurement of phosphoinositides
(§1) Total phosphoinositides in C-6 cells and in NMB-R transfected cells were determined as described previously, with minor modifications [Benya, R. V. et al. Mol. Pharmacol. 42:1058 (1992); and Wang, L-H. et al. Biochem. Jo 286:641 (1992)]. Cells were grown to confluence in 24-well plates and then loaded with 100 μCi/ml myo-[2-^3 H]inositol in Dulbecco's modified essential medium with 2% fetal bovine serum at 37° C. for 48 hrs. Cells were washed and incubated in phosphoinositide buffer (standard buffer additionally containing 10 mM LiCl, 20 mM HEPES, 2 mM CaCl2, 2% BSA, and 1.2 mM MgSO4) for 15 min and then for 60 min at 37° C. with agonists at various concentrations or with 3 nM NMB (a half-maximal effective concentration) and possible antagonists at different concentrations. Reactions were halted using ice-cold 1% HCl in methanol, and the inositol phosphates (IP) were isolated as described previously [Bologna, M. et al. Cancer 63:1714 (1989); and Endo, T. et al. J. Endocrinolo 131:313 (1991)]. Briefly, after loading of the anion exchange column, free [^3 H]glycerophosphorylinositol was removed by washing with 5 mM disodium tetraborate in 60 mM sodium formate. Total [^3 H]inositol phosphates were then eluted using 100 mM formic acid in 1.0M ammonium formate as described previously [Benya, R. V. et al. Mol. Pharmacol. 42:1058 (1992); and Wang, L-H. et al. Biochem. J. 286:641 (1992 )].

GRP receptor = GRP receptor (Rattus norvegicus, UniProt P52500); assay: GRP membrane receptor assay, 125I-[Tyr4]Bn, AR 42J cell membranes; format: binding; parameters: endogenous in cells; host or cells: rat AR 42J pancreatic acinar tumor cell membranes; details: read-out: affinity, 125I-[Tyr4]Bn, AR 42J Cell Membranes (GRP receptors); Cheng method; unit inferred
[2] = tested on: endothelin-1-stimulated increases in [3H]IP; assay: Endothelin-1-stimulated [3H]IP in C-6 glioblastoma cells; format: cell-based, rat
Method: as §1
(§2) without SSoctapeptide analog added. C6 glioblastoma cells (50,000
(§3) cells/well) were incubated with myo[2^3 H]inositol for two days,
(§4) washed and then incubated with or without the indicated peptides for 60
(§5) minutes at 37° C. in phosphoinositide buffer containing 10 mM LiCl
(§6) as described in METHODS. [^3 H]IP was measured using Dowex AG1X8 anio

NMB receptor [3] = molecular target: T3, NMB receptor; assay: [3H]IP in C-6 glioblastoma cells (alone or NMB-stimulated); format: cell-based; parameters: a full length NMB-preferring bombesin receptor clone generated from rat esophagus; expressed in transfected cells
Method: as §1, §2, §3, §4, §5, §6

[4] = 3 nM NMB, read-out: IC50 NMB-stimulated [3H]IP, NMB Receptor, Transfected Cells

T1 sequence (P30680 whole entry): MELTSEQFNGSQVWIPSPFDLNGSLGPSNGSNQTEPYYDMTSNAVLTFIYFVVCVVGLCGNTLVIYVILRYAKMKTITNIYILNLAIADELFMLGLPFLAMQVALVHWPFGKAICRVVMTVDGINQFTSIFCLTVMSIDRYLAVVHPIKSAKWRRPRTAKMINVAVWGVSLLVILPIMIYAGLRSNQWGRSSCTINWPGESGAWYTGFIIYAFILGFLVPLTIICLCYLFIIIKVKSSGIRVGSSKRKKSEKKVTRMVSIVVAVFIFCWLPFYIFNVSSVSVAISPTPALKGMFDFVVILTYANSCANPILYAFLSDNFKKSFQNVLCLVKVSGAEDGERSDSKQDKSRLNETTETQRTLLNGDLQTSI
T2 sequence (P33535 whole entry): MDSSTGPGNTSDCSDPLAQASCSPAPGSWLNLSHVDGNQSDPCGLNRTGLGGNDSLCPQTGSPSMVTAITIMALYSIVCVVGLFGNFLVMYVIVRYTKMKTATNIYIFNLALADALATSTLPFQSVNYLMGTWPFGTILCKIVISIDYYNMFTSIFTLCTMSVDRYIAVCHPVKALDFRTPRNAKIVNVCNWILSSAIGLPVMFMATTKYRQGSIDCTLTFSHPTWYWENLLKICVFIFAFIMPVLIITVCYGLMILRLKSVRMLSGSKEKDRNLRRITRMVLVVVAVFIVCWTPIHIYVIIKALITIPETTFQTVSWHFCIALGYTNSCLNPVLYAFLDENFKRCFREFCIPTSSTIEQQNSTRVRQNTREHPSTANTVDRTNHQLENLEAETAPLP
Sequence of GRP receptor (P52500 whole entry): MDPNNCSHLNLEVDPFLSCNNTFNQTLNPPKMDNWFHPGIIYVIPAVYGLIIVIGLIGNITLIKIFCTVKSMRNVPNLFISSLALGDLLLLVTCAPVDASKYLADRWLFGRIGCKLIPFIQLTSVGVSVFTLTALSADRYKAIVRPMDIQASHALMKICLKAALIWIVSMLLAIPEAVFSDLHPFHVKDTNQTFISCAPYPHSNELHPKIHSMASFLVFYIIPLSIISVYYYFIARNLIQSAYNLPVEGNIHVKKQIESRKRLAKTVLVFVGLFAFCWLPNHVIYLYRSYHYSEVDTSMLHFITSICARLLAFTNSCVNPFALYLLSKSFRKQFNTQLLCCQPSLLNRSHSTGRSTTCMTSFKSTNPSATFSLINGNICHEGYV

With `CC(C)[C@@H]1NC(=O)[C@H](CCCCN)NC(=O)[C@@H](Cc2c[nH]c3ccccc23)NC(=O)[C@H](Cc2ccc(O)cc2)NC(=O)[C@@H](NC(=O)[C@H](N)Cc2ccc3ccccc3c2)CSSC[C@@H](C(=O)N[C@H](Cc2ccc3ccccc3c2)C(N)=O)NC1=O` [Analog #8, H2 -D-Nal-Cys-Tyr-D-Trp-Lys-Val-Cys-D-Nal-NH2] (H-[d2Nal]CY[dW]KVC[d2Nal]-NH2; disulfide 2-7) the Ki (somatostatin receptors) was 3.9 ± 0.1 nM, the Ki (mu opioid receptors) was 0.28 µM and the IC50 (NMB receptor [1]; [4]) was 5.19 ± 0.987 µM. For the same molecule, the “[3H]IP, analog Alone (10 μM)” value (NMB receptor [1]) was 10 ± 3 dym × 10^3, the “[3H]IP, analog Plus NMB (3 nM)” value (NMB receptor [1]) was 67 ± 13 dym × 10^3 and the Ki (GRP receptor) was 4.1 ± 0.75 µM.
Work on `CC(C)[C@@H]1NC(=O)[C@H](CCCCN)NC(=O)[C@@H](Cc2c[nH]c3ccccc23)NC(=O)[C@H](Cc2ccc(O)cc2)NC(=O)[C@H](NC(=O)[C@H](N)Cc2ccc3ccccc3c2)CSSC[C@@H](C(=O)N[C@@H](Cc2ccc3ccccc3c2)C(N)=O)NC1=O` [Analog #10, H2 -D-Nal-D-Cys-Tyr-D-Trp-Lys-Val-Cys-Nal-NH2] (H-[d2Nal][dC]Y[dW]KVC[2Nal]-NH2; disulfide 2-7) yielded a Ki (somatostatin receptors) of 91 ± 23 nM, a Ki (mu opioid receptors) of 1.02 µM and an IC50 (NMB receptor [1]; [4]) of 3.99 ± 0.781 µM. The “effect at 10 μM on NMB-stimulated increase in [3H]IP” value (NMB receptor [1]; 10 μM, 3 nM NMB) was “completely inhibited”, the “[3H]IP, analog Alone (10 μM)” value (NMB receptor [1]) was 10 ± 3 dym × 10^3 and the “[3H]IP, analog Plus NMB (3 nM)” value (NMB receptor [1]) was 4 ± 2 dym × 10^3. The Ki (GRP receptor) was 1.5 ± 0.16 µM.
With `CC(C)[C@@H]1NC(=O)[C@H](Cc2c[nH]cn2)NC(=O)[C@@H](Cc2c[nH]c3ccccc23)NC(=O)[C@H](Cc2ccc(O)cc2)NC(=O)[C@@H](NC(=O)[C@H](N)Cc2ccc3ccccc3c2)CSSC[C@@H](C(=O)N[C@@H](Cc2ccc3ccccc3c2)C(N)=O)NC1=O` [Analog #14] (H-[d2Nal]CY[dW]HVC[2Nal]-NH2; disulfide 2-7; N-terminus assumed) the Ki (somatostatin receptors) was 1870 ± 30 nM, the Ki (mu opioid receptors) was 0.5 µM and the IC50 (NMB receptor [1]; [4]) was 11.9 ± 1.83 µM. The “[3H]IP, analog Alone (10 μM)” value (NMB receptor [1]) was 8 ± 1 dym × 10^3, the “[3H]IP, analog Plus NMB (3 nM)” value (NMB receptor [1]) was 97 ± 7 dym × 10^3 and the Ki (GRP receptor) was 3.1 ± 0.7 µM.
`C[C@@H](O)[C@@H]1NC(=O)[C@H](CCCCN)NC(=O)[C@@H](Cc2c[nH]c3ccccc23)NC(=O)[C@H](Cc2ccc(O)cc2)NC(=O)[C@@H](NC(=O)[C@H](N)Cc2ccccc2)CSSC[C@@H](C(=O)N[C@@H](Cc2ccc3ccccc3c2)C(N)=O)NC1=O` [Analog #7, H2 -D-phe-Cys-Tyr-D-Trp-Lys-Thr-Cys-Nal-NH2] (H-[dF]CY[dW]KTC[2Nal]-NH2; disulfide 2-7) showed a Ki (somatostatin receptors) of 0.86 ± 0.23 nM, a Ki (mu opioid receptors) of 0.2 µM and an IC50 (NMB receptor [1]; [4]) of 36.2 ± 4.97 µM. For the same molecule, the IC50 (NMB receptor [1]; 3 nM NMB, read-out: IC50 NMB-stimulated [3H]IP, Transfected Cells (values in μM)) was over 10 µM, the “[3H]IP, analog Alone (10 μM)” value (NMB receptor [1]) was 15 ± 1 dym × 10^3 and the “[3H]IP, analog Plus NMB (3 nM)” value (NMB receptor [1]) was 99 ± 24 dym × 10^3. The Ki (GRP receptor) was 0.75 ± 0.01 µM.
Work on `C[C@@H](O)[C@H](NC(=O)[C@@H]1CSSC[C@H](NC(=O)[C@H](N)Cc2ccc3ccccc3c2)C(=O)N[C@@H](Cc2ccc(O)cc2)C(=O)N[C@H](Cc2c[nH]c3ccccc23)C(=O)N[C@@H](CCCCN)C(=O)N[C@@H](Cc2ccc3ccccc3c2)C(=O)N1)C(N)=O` [Analog #2, H2 -D-Nal-Cys-Tyr-D-Trp-Lys-Nal-Cys-Thr-NH2] yielded a Ki (somatostatin receptors) of 0.5 ± 0.1 nM, a Ki (mu opioid receptors) of 0.0019 ± 0.0007 µM and an IC50 (NMB receptor [1]; [4]) of 6.67 ± 0.435 µM. For the same molecule, the “[3H]IP, analog Alone (10 μM)” value (NMB receptor [1]) was 11 ± 2 dym × 10^3, the “[3H]IP, analog Plus NMB (3 nM)” value (NMB receptor [1]) was 39 ± 7 dym × 10^3 and the Ki (GRP receptor) was 0.95 ± 0.07 µM. The “effect on endothelin-1-stimulated increases in [3H]IP in C-6 cells” value [2] was “no effect”, the “[3H]IP with ET-1 (0.1 nM)” value ([2]; analog 10 μM, ET-1 alone 11.0 ± 2.1) was 11.2 ± 1.9 dpm × 10^3 and the “effect on NMB-stimulated increases in [3H]IP in C-6 cells” value (NMB receptor [3]) was “inhibited”. For the same molecule, the “[3H]IP, no peptide added” value (NMB receptor [3]; analog 10 μM, 60 min 37° C., control 7.2 ± 1.0) was 7.3 ± 1.2 dpm × 10^3 and the “[3H]IP with NMB (10 nM)” value (NMB receptor [3]; analog 10 μM, NMB alone 21.0 ± 1.8) was 14.3 ± 4.2 dpm × 10^3.
